Data taken from ChEMBL document CHEMBL1201862, “PubChem BioAssay data set” (2004).
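Dose response: 5 concentrations. Exposure: 48 h. Format: 96-well plates. Endpoint: linear interpolation; highest concentration if not reached. Here, GI50 denotes the concentration required for 50% inhibition of growth.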 The source made the active and inactive calls. Cut-off read from the data, not from the text of the source: active = GI50 up to about 1.1 µM and inactive = higher.

How the values were obtained:
Test in all cases: DTP human tumour cell line panel, 48 h
[1] = test system: 786-0
[2] = test system: A498
[3] = test system: A549
[4] = test system: ACHN
[5] = test system: BT-549
[6] = test system: CAKI-1
[7] = test system: CCRF-CEM
[8] = test system: COLO 205
[9] = test system: DLD-1
[10] = test system: DMS-114
[11] = test system: DMS-273
[12] = test system: DU-145
[13] = test system: EKVX
[14] = test system: HCC 2998
[15] = test system: HCT-116
[16] = test system: HCT-15
[17] = test system: HL-60
[18] = test system: HOP-18
[19] = test system: HOP-62
[20] = test system: HOP-92
[21] = test system: HT-29
[22] = test system: Hs-578T
[23] = test system: IGROV-1
[24] = test system: K562
[25] = test system: KM-20L2
[26] = test system: KM12
[27] = test system: LOX IMVI
[28] = test system: LXFL 529
[29] = test system: M14
[30] = test system: M19-MEL
[31] = test system: MCF7
[32] = test system: MDA-MB-231
[33] = test system: MDA-MB-435
[34] = test system: MDA-N
[35] = test system: MOLT-4
[36] = test system: Malme-3M
[37] = test system: NCI-H226
[38] = test system: NCI-H23
[39] = test system: NCI-H460
[40] = test system: NCI-H522
[41] = test system: NCI/ADR-RES
[42] = test system: OVCAR-3
[43] = test system: OVCAR-8
[44] = test system: PC-3
[45] = test system: RPMI-8226
[46] = test system: RXF 393
[47] = test system: RXF 631
[48] = test system: SF-268
[49] = test system: SF-295
[50] = test system: SF-539
[51] = test system: SK-MEL-28
[52] = test system: SK-MEL-2
[53] = test system: SK-MEL-5
[54] = test system: SK-OV-3
[55] = test system: SNB-19
[56] = test system: SNB-75
[57] = test system: SNB-78
[58] = test system: SR
[59] = test system: SW-620
[60] = test system: T47D
[61] = test system: TK-10
[62] = test system: U-251
[63] = test system: UACC-257
[64] = test system: UACC-62
[65] = test system: UO-31
[66] = test system: XF498

In the case of `C/C(=N\NC(=S)N1CCC1)c1ccccn1`, the GI50 [1] is reported as < 23.9 nM (active), the GI50 [2] is reported as 446 nM (active) and the GI50 [3] is reported as 24.6 nM (active). The GI50 [4] was 10 nM (active), the GI50 [5] was 11.5 µM (inactive) and the GI50 [6] was 39.8 nM (active). For the same compound, the GI50 [7] was 10 nM (active), the GI50 [8] was 10 nM (active) and the GI50 [9] was 10 nM (active). For the same compound, the GI50 [10] was 10 nM (active), the GI50 [11] was 10 nM (active) and the GI50 [12] was 891 nM (active). For the same compound, the GI50 [13] was 65.8 nM (active), the GI50 [14] was 374 nM (active) and the GI50 [15] was 10 nM (active). The GI50 [16] was less than 21.9 nM, the GI50 [17] was 10 nM (active) and the GI50 [18] was 929 nM (active). For the same compound, the GI50 [19] was 18.1 nM (active), the GI50 [20] was 44.3 nM (active) and the GI50 [21] was 10 nM (active). For the same compound, the GI50 [22] was 4.06 µM (inactive), the GI50 [23] was 10 nM (active) and the GI50 [24] was 10 nM (active). The GI50 [25] was 10 nM (active), the GI50 [26] was 28.7 nM (active) and the GI50 [27] was < 11.9 nM (active). The GI50 [28] was 10 nM (active), the GI50 [29] was 10 nM (active) and the GI50 [30] was 81.5 nM (active). The GI50 [31] was 1.5 nM (active), the GI50 [32] was 15.5 nM (active) and the GI50 [33] was 26.4 nM (active). For the same compound, the GI50 [34] was 68.2 nM (active), the GI50 [35] was 10 nM (active) and the GI50 [36] was 175 nM (active). The GI50 [37] was 293 nM (active), the GI50 [38] was 10 nM (active) and the GI50 [39] was < 18.4 nM (active). For the same compound, the GI50 [40] was < 49.7 nM (active), the GI50 [41] was 3.32 nM (active) and the GI50 [42] was 10 nM (active). For the same compound, the GI50 [43] was 10 nM (active), the GI50 [44] was 51.2 nM (active) and the GI50 [45] was 10 nM (active). For the same compound, the GI50 [46] was 163 nM (active), the GI50 [47] was < 26.2 nM (active) and the GI50 [48] was 824 nM (active). The GI50 [49] was 10 nM (active), the GI50 [50] was 114 nM (active) and the GI50 [51] was 425 nM (active). For the same compound, the GI50 [52] was 1.97 µM (inactive), the GI50 [53] was < 19.6 nM (active) and the GI50 [54] was < 13.1 nM (active). For the same compound, the GI50 [55] was 261 nM (active), the GI50 [56] was 838 nM (active) and the GI50 [57] was 2.2 µM (inactive). The GI50 [58] was 10 nM (active), the GI50 [59] was < 10.3 nM (active) and the GI50 [60] was 1.37 nM (active). For the same compound, the GI50 [61] was 1.29 µM (inactive), the GI50 [62] was 10 nM (active) and the GI50 [63] was < 22.9 nM (active). For the same compound, the GI50 [64] was < 16 nM (active), the GI50 [65] was 427 nM (active) and the GI50 [66] was 457 nM (active).
